Patent US20200231607A1, “TRISUBSTITUTEDSILYLHETEROARYLOXYQUINOLINES AND ANALOGUES” (Bayer Aktiengesellschaft, priority 2017, published 2020)

Columns and labels:
[1] = HPLC, reversed-phase C 18, 40° C., 0.1% aqueous formic acid and acetonitrile, gradient 10% to 95% acetonitrile
Procedure: temperature: 40° C.; mobile phases: 0.1% aqueous formic acid and acetonitrile; linear gradient from 10% acetonitrile to 95% acetonitrile;
Calibration was carried out using unbranched alkan-2-ones (comprising 3 to 16 carbon atoms) with known log P values (determination of the log P values by the retention times using linear interpolation between two successive alkanones). lambda-max-values were determined using UV-spectra from 200 nm to 400 nm and the peak values of the chromatographic signals.

Leptnosphaeria nodorum = test: In vitro cell test on Leptnosphaeria nodorum; assay type: cell-based; details: 120 h; 20 ppm of active ingredient; 5 days incubation; liquid culture, spectrometric measurement of mycelium growth; read-out: efficacy (inhibition of fungal growth)
Procedure: (§1) Solvent: dimethyl sulfoxide Culture medium: 14.6 g anhydrous D-glucose (VWR), • 7.1 g mycological peptone (Oxoid), • 1.4 g granulated yeast extract (Merck), QSP 1 liter Inoculum: spore suspension The tested compounds were solubilized in dimethyl sulfoxide and the solution used to prepare the required range of concentrations. […] A spore suspension of Leptnosphaeria nodorum was prepared and diluted to the desired spore density. The compounds were evaluated for their ability to inhibit spore germination and mycelium growth in liquid culture assay. The compounds were added in the desired concentration to the culture medium with spores. After 5 days incubation, fungi-toxicity of compounds was determined by spectrometric measurement of mycelium growth. Inhibition of fungal growth was determined by comparing the absorbance values in wells containing the tested compound with the absorbance in control wells without the tested compound.

[2] = tested on: Colletotrichum lindemuthianum; test: In vitro cell test on Colletotrichum lindemuthianum; assay type: cell-based; details: 144 h, 20 ppm of active ingredient, 6 days incubation, liquid culture, spectrometric measurement of mycelium growth, read-out: efficacy (inhibition of fungal growth)
Procedure: as §1, with “Colletotrichum lindemuthianum” for “Leptnosphaeria nodorum”, “6” for “5”

Pyricularia oryzae = test: microbe, parasite or virus in culture; assay type: cell-based; details: 120 h, read-out: efficacy (inhibition of fungal growth)

| Structure (SMILES) | chromatographic logP [1] | other results |
| --- | --- | --- |
| C[Si](C)(C)c1cnccc1Oc1cnc2ccccc2n1 [I.01] | – | logP [1]: 2.64 |
| C[Si](C)(C)c1cnccc1Oc1cnc2ccccc2c1 [I.02] | – | logP [1]: 2.15 |
| C[Si](C)(C)c1c(Oc2cnc3ccccc3c2)ccnc1F [I.03, 3-{[2-fluoro-3-(trimethylsilyl)pyridin-4-yl]oxy}quinoline] | 4.08 | inhibition at 20 ppm (Leptnosphaeria nodorum): 90 to 100%; inhibition at 20 ppm [2]: 90 to 100%; inhibition at 20 ppm (Pyricularia oryzae): 90 to 100% |
| C[Si](C)(Cc1ccccc1)c1c(Oc2cnc3ccccc3c2)ccnc1F [I.06, 3-({3-[benzyl(dimethyl)silyl]-2-fluoropyridin-4-yl}oxy)quinoline] | 4.78 | inhibition at 20 ppm (Leptnosphaeria nodorum): 80 to 89%; inhibition at 20 ppm [2]: 80 to 89%; inhibition at 20 ppm (Pyricularia oryzae): 90 to 100% |
| C[Si](C)(C)c1cnccc1Oc1cnc2c(F)cccc2n1 [I.15] | – | logP [1]: 2.75 |
| Cc1nc2c(F)c(F)ccc2nc1Oc1ccncc1[Si](C)(C)C [I.18] | – | logP [1]: 2.80 |
| Cc1nc2c(F)c(F)ccc2nc1Oc1cnccc1[Si](C)(C)C [I.19] | – | logP [1]: 3.94 |
| Cc1nc2ccccc2nc1Oc1ccncc1[Si](C)(C)C [I.23] | – | logP [1]: 2.49 |
| Cc1nc2ccccc2n1Cc1sccc1[Si](C)(C)C [I.24, 2-methyl-1-{[3-(trimethylsilyl)-2-thienyl]methyl}-1H-benzimidazole] | 2.13 | inhibition at 20 ppm (Leptnosphaeria nodorum): 90 to 100%; inhibition at 20 ppm [2]: 90 to 100%; inhibition at 20 ppm (Pyricularia oryzae): 90 to 100% |
| C[Si](C)(C)c1sccc1Cn1cnc2ccccc21 [I.25] | – | logP [1]: 2.08 |
| C[Si](C)(c1ccccc1)c1sccc1Cn1cnc2ccccc21 [I.26] | – | logP [1]: 2.49 |
| Cc1nc2c(F)c(F)ccc2cc1Cc1sccc1[Si](C)(C)C [I.28, 7,8-difluoro-2-methyl-3-{[3-(trimethylsilyl)-2-thienyl]methyl}-quinoline] | 5.25 | – |
| Cc1nc2c(F)c(F)ccc2nc1Oc1cccnc1Br [IIa.01, 2-[(2-bromopyridin-3-yl)oxy]-5,6-difluoro-3-methylquinoxaline] | 3.26 | – |
| Cc1nc2c(F)c(F)ccc2nc1Oc1cc(Cl)cnc1Br [IIa.02, 2-[(2-bromo-5-chloropyridin-3-yl)oxy]-5,6-difluoro-3-methylquinoxaline] | 4.3 | – |
| Fc1ccc2nc(Oc3cccnc3Br)cnc2c1F [IIa.03, 2-[(2-bromopyridin-3-yl)oxy]-5,6-difluoroquinoxaline] | 2.96 | – |
| Fc1cccc2cc(Nc3cccnc3Cl)cnc12 [IIa.04, N-(2-chloropyridin-3-yl)-8-fluoroquinolin-3-amine] | 2.14 | – |
| Fc1nccc(Oc2cnc3ccccc3c2)c1Br [IIb.01, 3-[(3-bromo-2-fluoropyridin-4-yl)oxy]quinoline] | 2.96 | logP [1]: 2.92 |
| Cc1nc2c(F)c(F)ccc2nc1Oc1cc(Cl)ncc1Br [IIb.02, 2-[(5-bromo-2-chloropyridin-4-yl)oxy]-5,6-difluoro-3-methylquinoxaline] | 4.2 | – |
| Fc1ccc2nc(Oc3ccncc3Br)cnc2c1F [IIb.03, 2-[(3-bromopyridin-4-yl)oxy]-5,6-difluoroquinoxaline] | 1.81 | – |

| Structure (SMILES) | chromatographic logP [1] | other results |
| --- | --- | --- |
| Clc1nccc(Nc2cnc3ccccc3c2)c1Br [IIb.04, N-(3-bromo-2-chloropyridin-4-yl)quinolin-3-amine] | 2.35 | – |
| COc1nccc(Oc2cc3ccc(F)c(F)c3nc2C)c1Br [IIb.05, 3-[(3-bromo-2-methoxypyridin-4-yl)oxy]-7,8-difluoro-2-methylquinoline] | 3.85 | – |
| Fc1nccc(Oc2cnc3c(F)cccc3c2)c1Br [IIb.06, 3-[(3-bromo-2-fluoropyridin-4-yl)oxy]-8-fluoroquinoline] | 2.98 | – |
| Clc1nccc(Oc2cnc3ccccc3c2)c1Br [IIb.07, 3-[(3-bromo-2-chloropyridin-4-yl)oxy]quinoline] | 2.35 | – |
| Fc1nccc(Nc2cnc3ccccc3c2)c1Br [IIb.08, N-(3-bromo-2-fluoropyridin-4-yl)quinolin-3-amine] | 2.25 | – |
| Cc1nc2c(F)c(F)ccc2cc1Oc1ccnc(C(F)(F)F)c1Br [IIb.09, 3-{[3-bromo-2-(trifluoromethyl)pyridin-4-yl]oxy}-7,8-difluoro-2-methylquinoline] | 4.01 | – |
| Cc1nc2c(F)c(F)ccc2cc1Nc1ccnc(C(F)(F)F)c1Br [IIb.10, N-[3-bromo-2-(trifluoromethyl)pyridin-4-yl]-7,8-difluoro-2-methylquinolin-3-amine] | 3.37 | – |
| Cc1nc2c(F)c(F)ccc2nc1Oc1cncc(Cl)c1Br [IIc.01, 2-[(4-bromo-5-chloropyridin-3-yl)oxy]-5,6-difluoro-3-methylquinoxaline] | 4.06 | – |
| Cc1nc2ccccc2cc1Oc1cnccc1Br [IIc.02, 3-[(4-bromopyridin-3-yl)oxy]-2-methylquinoline] | 2.44 | – |
| Cc1nc2c(F)c(F)ccc2nc1Oc1cnccc1Br [IIc.03, 2-[(4-bromopyridin-3-yl)oxy]-5,6-difluoro-3-methylquinoxaline] | 3.19 | – |
| Cc1nc2c(F)c(F)ccc2nc1Oc1ncc(Cl)cc1Br [IId.01, 2-[(3-bromo-5-chloropyridin-2-yl)oxy]-5,6-difluoro-3-methylquinoxaline] | 4.72 | – |
| Cc1nc2c(F)c(F)ccc2cc1Nc1ncc(Cl)cc1Br [IId.02, N-(3-bromo-5-chloropyridin-2-yl)-7,8-difluoro-2-methylquinolin-3-amine] | 4.36 | – |
| Clc1ncnc(Oc2cnc3ccccc3c2)c1Br [IIe.01, 3-[(5-bromo-6-chloropyrimidin-4-yl)oxy]quinoline] | 3.09 | – |
| Cc1nc2c(F)c(F)ccc2cc1Oc1sccc1Br [IIf.01, 3-[(3-bromo-2-thienyl)oxy]-7,8-difluoro-2-methylquinoline] | 4.23 | – |
| Clc1cc(Oc2cnc3ccccc3c2)ccn1 [VIIa.01, 3-[(2-chloropyridin-4-yl)oxy]quinoline] | 2.47 | – |
| Cc1nc2ccccc2cc1Oc1ccnc(F)c1 [VIIa.02, 3-[(2-fluoropyridin-4-yl)oxy]-2-methylquinoline] | 2.17 | – |
| Fc1cc(Oc2cnc3ccccc3c2)ccn1 [VIIa.03, 3-[(2-fluoropyridin-4-yl)oxy]quinoline] | 2.25 | – |
| Fc1cc(Oc2cnc3ccccc3c2)ncn1 [VIIb.01, 3-[(6-fluoropyrimidin-4-yl)oxy]quinoline] | 2.08 | – |
